Common to all, as to assay type: in vivo
The test system of assay [1] is insulin deficient rats (alloxan and streptozotocin). Kind of assay: Liver glycogen after oral GLP-1 in alloxan/streptozotocin treated rats. Conditions: Dose GLP-1 0.01 mg/rat, 2 hours post dosing. The protocol: Rats were fasted overnight. Subsequently, 800 mg each of alloxan and streptozotocin were dissolved in 40 mL of PBS (pH 7, 0.01M). The fasted rats were then treated immediately with a 0.5 mL IP dose to induce insulin deficiency. The animals were then stabilized overnight with water and food. Following stabilization, the rats were fasted overnight to deplete liver glycogen.
Subsequently, the rats were administered 1.5 g glucose/kg body weight and GLP-1 in the form of a GLP-1 associated with a composition comprising approximately 62 mole percent 1,2 distearoyl-sn-glycero-3-phosphocholine, approximately 22 mole percent dihexadecyl phosphate, and approximately 16 mole percent cholesterol (“associated GLP-1”). In separate experiments, the amount of associated GLP-1 was varied. Liver glycogen was measured chemically at 2 hours post dosing.
As a control, unassociated GLP-1 was gavaged in place of associated GLP-1. In a separate control, GLP-1, in a dose similar to that orally gavaged, was injected intraperitoneally.

The next assay concerns normal, fasted rats. Kind of assay: Blood calcium levels after calcitonin administration. Conditions: subcutaneous injection, control rats. As for the experimental part: Normal, fasted, control rats were given a dose of salmon calcitonin via subcutaneous injection such that an initial 10% reduction in blood calcium was observed. Blood calcium levels were then measured for six hours post injection. An experimental group of rats was given the same effective dose of calcitonin by oral gavage, in the form of a composition comprising calcitonin and approximately 62 mole percent 1,2 distearoyl-sn-glycero-3-phosphocholine, approximately 22 mole percent dihexadecyl phosphate, and approximately 16 mole percent cholesterol. Blood calcium levels were followed for six hours (FIG. 8). […] This difference was statistically significant (FIG. 8).

Assay [2] deals with mice made diabetic by streptozotocin and alloxan. Kind of assay: Blood glucose after oral dosing via drinking water in alloxan-streptozotocin treated mice. Conditions: day seven, 0.1 U/ml in drinking water, tail-vein blood. The source says: Mice used in the present experiment were made diabetic by administering streptozotocin and alloxan. The diabetic animals were then divided into two groups. The control group (11 mice) was orally dosed with regular insulin. The experimental group (7 mice) was orally dosed with a composition comprising insulin and approximately 61 mole percent 1,2 distearoyl-sn-glycero-3-phosphocholine, approximately 22 mole percent dihexadecyl phosphate, approximately 16 mole percent cholesterol, and approximately 1 mole percent poly[Cr-bis(N-2,6-diisopropylphenylcarbamoylmethyl iminodiacetic acid)] (wherein a known portion of the phospholipid component comprised ^14C labeled phospholipid). Dosing was accomplished utilizing the water bottle dosing method described in Experiment 2.
After being made diabetic, […] in both groups were treated identically over a 7 day period and fed with plain food and plain water. Following this 7 day period, rats in the control group were treated for an additional 7 day experimental period with food and regular insulin in the available drinking water at 0.1 U/ml. Over the same 7 day experimental period, the experimental group was fed regular food with the composition of the invention available in the drinking water at 0.1 U/ml. At the end of each 7-day period, blood glucose was measured in a tail-vein sample of blood by a Beckman Blood Glucose Analyzer.

This is an account of results in US10751418B2, “Orally bioavailable lipid-based constructs” (SDG, Inc., priority 2007, dated 2020).

No end group written: not given here.

For “GLP-1: unassociated GLP-1 peptide, gavaged or injected intraperitoneally as control (HAEGTFTSDVSSYLEGQAAKEFIAWLVKGR; ends and bridges not checked; UniProt P01275 98-127, looked up)”, the “Liver Glycogen” value in assay [1] (intraperitoneal) is 59 ± 44 mg/g liver; in assay [1] (oral gavage), 40 ± 22 mg/g liver.
salmon calcitonin: the “initial reduction in blood calcium” value with normal, fasted rats is reported as 10%.
For the substance “regular insulin: regular insulin orally dosed to the control group in drinking water”, the blood glucose entry in assay [2] is “not altered at all”.
